This note sets out measurements from the METLIN SMRT retention time set (Domingo-Almenara et al. 2019).

This series is described as follows: gradient 5% acetonitrile 3 min, to 50% in 2 min, to 85% in 15 min, held 3 min, 100 µL/min. As to conditions: column: Zorbax Extend-C18 2.1 x 50 mm; eluents: water / acetonitrile, 0.1% formic acid. The essentials:
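Retention time was recorded from adduct peaks, which were picked computationally and each inspected manually. Pure standards ran in mixtures of ~100 molecules on HPLC coupled to a quadrupole time-of-flight mass spectrometer, in positive and negative ionization mode, through a Zorbax Extend-C18 column (2.1 × 50 mm, 1.8 μm) at 100 μL/min. Eluents were water and acetonitrile, each with 0.1% formic acid.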
`CCCNc1cc(N2CCC(CCC(=O)NC(C)C)CC2)ncn1` yielded an RP-LC retention time of 602 s.
Next, `CN(Cc1cccnc1Oc1ccccc1)C(=O)c1cnccn1`: 691 s.
In the case of `CC(Cc1ccco1)NC(=O)C1CCN(S(=O)(=O)c2ccc3c(c2)sc(=O)n3C(C)C)CC1` (stereo not given) it was 920 s.
In the case of `Nc1nc(-c2ccc(Cl)cc2)nn1C(=O)C1CC1` it was 945 s.
`CC(=O)Nc1ccc(OCc2cc(C(=O)NC3CCCCC3)no2)cc1` yielded an RP-LC retention time of 781 s.
Next, `CCCC(NC(=O)c1ccc(F)cc1)C(=O)Nc1nc2ccccc2[nH]1` (stereo not given): 690 s; `Cc1ccccc1-c1noc(CN2C(=O)C(C)Oc3ccccc32)n1` (stereo not given): 1110 s.
As to `CCCCCc1c(C)nn(-c2nc(CC(=O)Nc3nc4ccccc4[nH]3)cs2)c1C`, the RP-LC retention time is 995 s.
Take `Cc1ccc(N2C(=O)CN(S(C)(=O)=O)CC2(C)C(=O)NCc2ccc(F)cc2)cc1Cl` (stereo not given): the RP-LC retention time worked out at 877 s.
Next, `CCN1CCN(c2ncc3c(n2)CCN(Cc2cccc(Br)c2)C3)CC1`: 550 s.
As to `CCCn1cc(S(=O)(=O)Nc2ccc(F)c(F)c2)c2cccnc21`, the RP-LC retention time amounted to 898 s.
Next, `COc1cccc(CCC(=O)Nc2cnn(-c3ncc(N4CCCC4)cn3)c2)c1`: 829 s; `CS(=O)(=O)N1C[C@H]2CCN(Cc3ccc(F)cc3Cl)C[C@H]21`: 597 s; `Cc1nnc(-c2ccc3ccn(CC(=O)Nc4cccc(C#N)c4)c3c2)o1`: 798 s.
In the case of `COc1ccc(NC(=O)C2CCc3nc(N4CCOCC4)ncc3C2)c(C)c1` (stereo not given) it was 702 s.
In the case of `CCc1nc(-c2csc(S(=O)(=O)N3CCCC(C(=O)Nc4ccc5c(c4)OCO5)C3)c2)no1` (stereo not given) it was 984 s; in that of `CCN(CC)C(=O)N1CCC2(CC1)C(OC)C(=O)N2c1cccc(F)c1` (stereo not given), 937 s; in that of `Cc1ccc(-c2nc(Nc3cccc(C(F)(F)F)c3)sc2CC(=O)O)c(C)c1`, 1120 s.
Regarding `Cc1cccc(-c2noc(CN3N=NC4C(=O)N(c5cccc(Cl)c5)C(=O)C43)n2)c1` (stereo not given), the RP-LC retention time is 1060 s.
Next, `Cc1c(C(=O)NCc2ccc(OC(C)C)cc2)cc(-c2ccccc2)n1C`: 1080 s.
Next, `CCOC(=O)CNC(=O)Nc1ccccc1-c1cc2ccccc2[nH]1`: 866 s; `Cc1ccc2cc(CCC(=O)NC(C)c3cn(C)nc3C)c(=O)[nH]c2c1` (stereo not given): 618 s.
In the case of `COc1ccc(-n2c(Cc3cccn3C)nnc2SCC(=O)NCC2CCCO2)cc1` (stereo not given), the RP-LC retention time came out at 655 s.
In the case of `CCCN(CC1CCOC1)S(=O)(=O)c1cccc(C(F)(F)F)c1` (stereo not given) it was 1000 s; in that of `COC(=O)c1cnc2nc(C)ccc2c1Nc1cc(Cl)ccc1C`, 716 s; in that of `Cc1noc2ncn(CC(=O)NCc3cccc(F)c3)c(=O)c12`, 712 s.
`COC[C@@H]1CN(C(=O)c2cc(Cl)ccc2F)C[C@H]1C(N)=O` gave an RP-LC retention time of 611 s.
Next, `Cc1cccc(N2CCN(C(=O)C3CCN(S(=O)(=O)c4cn(C(C)C)cn4)CC3)CC2)c1C`: 929 s.
Consider `Cc1ccc(C)c(S(=O)(=O)Nc2ccc(Cn3cncn3)cc2)c1`, for which the RP-LC retention time came to 725 s.
Next, `CC1=C(c2ccc(F)cc2)S(=O)(=O)N=C1N1CCCN(C(=O)NC(C)C)CC1`: 746 s; `Cc1cc(C)n2nc(SCC(=O)Nc3cccc(Cl)c3)nc2n1`: 789 s.
Next, `COc1cc(OC)c(NC(=O)N2CCC(CN3CCCC(C)C3)CC2)cc1Cl` (stereo not given): 630 s; `Cc1ccc(C)c(NC(=O)Cc2csc3nc(-c4ccccc4)cn23)c1`: 845 s; `COCC(=O)N(C1CCOCC1)C1CCN(S(=O)(=O)c2cccc(F)c2)CC1`: 758 s.
The molecule `COc1ccc(F)cc1-c1cc(N2CCN(C(=O)NCC(C)C)CC2)ncn1` returned an RP-LC retention time of 645 s.
`Cc1cc(C)nc(-n2nc(C)cc2N)n1` yielded an RP-LC retention time of 577 s.
`O=C(CCc1ccccc1)NCCn1c(C(F)(F)F)nc2cccnc21` yielded an RP-LC retention time of 998 s.
For `COc1ccc(-c2cc3nn(CC(=O)Nc4cccc(OC)c4)c(=O)n3c(C)n2)cc1`, the RP-LC retention time is 681 s.
In the case of `Cc1cc(C)n(-c2nc3cc(Cl)ccc3nc2N2CCN(c3ccccn3)CC2)n1` it was 754 s.
Next, `Cc1ccc(C)c(NC(=O)Cn2nc3c4sc(N(C)C)nc4ncn3c2=O)c1`: 694 s; `Cc1ccc(NC(=O)N2C[C@@H](F)C[C@H]2C(=O)N2CCc3ccccc3C2)c(Cl)c1`: 831 s.
In the case of `Clc1ccc(-c2cn3cccnc3n2)cc1` it was 662 s; in that of `CCCCCn1c(=O)c2ccccc2n(Cc2nc(-c3ccccc3OC)no2)c1=O`, 1130 s.
The molecule `COCCn1cc2c3c(cccc31)CN(C(=O)Nc1cccc(Cl)c1)CC2` gave an RP-LC retention time of 981 s.
In the case of `Cc1ccc(C)c(N2CCN(S(=O)(=O)c3c(C)sc(C)c3-c3cc(C)[nH]n3)CC2)c1` it was 1150 s; in that of `Cc1cc(N2CCN(C)CC2)nc2ccc(NC(=S)NCCC(C)C)cc12`, 572 s; in that of `COc1ccc(CN2CCNCC2)c(OC)c1OC`, 578 s.
`CC(C)CCN1C[C@@H]2C(=O)N(CCN3CCc4ccccc4C3)C(=O)[C@@H]2C1`: the RP-LC retention time is 561 s.
Next, `Cc1scc2nc(C3CCC3)nc(N3CCC(C(=O)N4CCN(c5ccccc5F)CC4)CC3)c12`: 838 s.
As for `COC(=O)c1ccc(NC(=O)C(=O)NCC2CCN(Cc3ccco3)CC2)cc1`, the RP-LC retention time is 573 s.
Molecule `CSc1ccc(CNC(=O)C2CCN(Cc3cn(C)c4ccc(Cl)cc34)CC2)cc1` yielded an RP-LC retention time of 766 s.
In the case of `C=CCN1CCN(c2ccc3nnc(CCc4nc(-c5ccccc5OC)no4)n3n2)CC1` it was 573 s; in that of `O=C(NCCCN1CCCC1=O)c1ccc2nc(Cc3ccccc3)oc2c1`, 731 s; in that of `COC(=O)C1=CN(c2cc(F)ccc2C)c2ccccc2S1(=O)=O`, 832 s.
In turn, `Cn1cc(C(=O)NCc2ccc(F)cc2F)c(S(=O)(=O)N2CCSCC2)n1` registered an RP-LC retention time of 876 s.
Next, `CC1=C(C(=O)Nc2cccc(C(=O)N3CCN(c4ccccn4)CC3)c2)SCCO1`: 612 s; `CCN(Cc1ccc(OC)cc1)Cc1cc(=O)n2ccccc2n1`: 585 s.
Molecule `CSc1ccc(-c2nc3ccccn3c2Nc2ccc(Cl)cc2)cc1` registered an RP-LC retention time of 779 s.
Consider `CCCn1c(=O)sc2cc(S(=O)(=O)N3CCN(C(=O)C4CCN(C(C)=O)CC4)CC3)ccc21`, for which the RP-LC retention time is 722 s.
In turn, `O=C(CC1(O)C(=O)Nc2c(Cl)cc(Cl)cc21)c1cccc2ccccc12` (stereo not given) gave an RP-LC retention time of 862 s.
